Three compounds from patent publication US9034874B2, “Carbamate/urea derivatives” (NOVARTIS AG, priority 2012, dated 2015) can be followed below.

One assay relates to wakefulness in rats. Briefly: Effects on wakefulness (EEG/EMG recordings). Type of assay: in vivo, rat. The following applies: oral, first 4 hours after administration. How it is done:
Animals: Male Sprague-Dawly rats (280-320 g) were housed individually under an ambient temperature of 22±0.5° C. with a relative humidity of 60±2% and an automatically controlled 12-h light/12-h dark cycle (light on at 07:00, illumination intensity 100 lux). The animals had free access to food and water.
EEG recording set up, Polygraphic Recordings and Vigilance State Analysis: Under pentobarbital anesthesia (50 mg/kg, i.p.), rats were chronically implanted with EEG and electromyogram (EMG) electrodes for polysomnographic recordings (Huang et al, J Neurosci, 23, 5975-5983, 2003). Two stainless steel screws (1 mm in diameter) EEG electrodes (the first screw: anteroposterior (AP), +2 mm; left-right (LR), −2 mm; and the second: AP, −2 mm; LR, −2 mm, AP from bregma, LR from lambda) and a reference electrode (opposite to EEG screw side, AP, +3 mm; LR, 3 mm) were surgically implanted and 3 stainless steel screws for anchorage to the skull. Two insulated stainless steel, Teflon-coated wires were bilaterally placed into both trapezius muscles and served as EMG electrodes for rats. All electrodes were attached to a micro connector and fixed to the skull with dental cement. […]
For the study of spontaneous sleep-wakefulness cycles, each animal was recorded for 24 h beginning at 19:00 P.M., the offset of the light period. The animals then entered the pharmacological phase of the study, in which sleep-wakefulness parameters were recorded for 72 h. […]
Cortical EEG and EMG signals were amplified, filtered (EEG, 0.5-30 Hz; EMG, 20-200 Hz), digitized at a sampling rate of 128 Hz, and recorded by using SLEEPSIGN (Kissei Comtec, Nagano, Japan). When complete, polygraphic recordings were automatically scored offline by 4-sec epochs as wake, REM, and NREM sleep by SleepSign according to standard criteria (Huang et al, Nat Neurosci, 8, 858-859, 2005). […]
Time-course changes in the amounts of sleep-wake, sleep/wake stage transition number, as well as number and duration of sleep/wake bouts in light/dark phases, were analyzed by the paired t test, with each animal serving as its own control. […]

For a further assay, the target named is human H3 receptors (Homo sapiens (Human), UniProt Q9Y5N1). The assay can be described thus: Potency assessment: blockade of (R)-alpha-methylhistamine-mediated cAMP production (LANCE Ultra cAMP kit). Type of assay: cell-based. The following applies: CHO cells expressing human H3 receptors. The procedure: The potency of compounds of the invention as H3 receptor antagonists can be assessed by measuring the blockade of (R)-alpha-methylhistamine-mediated cAMP production utilizing a LANCE Ultra cAMP kit (PE #TRF0263) in CHO cells expressing human H3 receptors (GenBank: BC096840; Strausberg R L et al, Proc. Natl. Acad. Sci. U.S.A. 99(26), 16899-16903; 2002).
2. Preparation of assay plate: Different concentrations of the compounds of the invention (0.01-1000 nM), H3 positive controls and cAMP calibration standards; […] Forskolin (CALBIOCHEM #344270); 5 μM (R)-alpha-methylhistamine (H3 receptor agonist); 1% DMSO (SIGMA #D2650); total volume: 95 nl.
3. Preparation of the cell solution: Collect cells with stimulation buffer, final density: 100,000 cells/ml.
4. Reaction: (a) transfer 10 μl of cell solution to assay plate, (b) centrifuge at 600 rpm for 3 min and incubate 50 min at room temperature, (c) add 5 μL 4× Eu-cAMP tracer solution (60 μl Eu-cAMP tracer stock solution+2.94 ml cAMP detection buffer) and 5 μL 4× ULight™-anti-cAMP solution (20 μl […]+2.98 ml cAMP detection buffer) to assay plate.
5. Reading plate on EnVision: flash energy: 100%; excitation filter: 111 UV2 320; emission filter: 203 (Eu 615) and 205 (APC 665); number of laser flashes: 20; window: 100 μs; laser mirror module: 445 or 446; laser cycle: 16,600 μs.
6. Data analysis by GraphPad Prism: log (compound concentration) vs. response; variable slope.
A general note: Cyclic AMP is a second messenger, typically raised through Gs and lowered through Gi signalling.

What is called pKi is −log10 of the Ki, conventionally taken in molar units. A low value points to a high Ki.

pKi: −log10 of the molar value.

Sequence of human H3 receptors (Q9Y5N1 whole entry): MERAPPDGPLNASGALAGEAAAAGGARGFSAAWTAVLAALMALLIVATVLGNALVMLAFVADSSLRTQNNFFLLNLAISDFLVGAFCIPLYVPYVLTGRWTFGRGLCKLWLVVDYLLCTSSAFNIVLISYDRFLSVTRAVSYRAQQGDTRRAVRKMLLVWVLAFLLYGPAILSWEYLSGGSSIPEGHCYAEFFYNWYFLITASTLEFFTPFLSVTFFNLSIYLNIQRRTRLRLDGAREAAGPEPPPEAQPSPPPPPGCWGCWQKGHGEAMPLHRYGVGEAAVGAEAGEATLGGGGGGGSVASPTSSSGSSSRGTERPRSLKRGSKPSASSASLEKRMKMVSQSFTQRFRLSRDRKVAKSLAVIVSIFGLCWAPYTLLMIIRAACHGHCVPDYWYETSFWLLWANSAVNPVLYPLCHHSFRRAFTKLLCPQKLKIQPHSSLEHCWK

As to `O=C(OC1CCN(c2ccc(=O)[nH]n2)CC1)N1CCN(C2CCC2)CC1` [Example 1.1, 1-(6-oxo-1,6-dihydropyridazin-3-yl)piperidin-4-yl 4-cyclobutylpiperazine-1-carboxylate], the “% increase in wakefulness at 10 mg” value in the assay with wakefulness in rats came to 42.1%. This compound showed a negative logarithm of the Ki (pKi) at human H3 receptors of 8.89.

For the compound `CC(C)N1CCN(C(=O)OC2CCN(c3ccc(=O)n(C)n3)CC2)CC1` [Example 1.2, 1-(1-methyl-6-oxo-1,6-dihydropyridazin-3-yl)piperidin-4-yl 4-isopropylpiperazine-1-carboxylate], the “% increase in wakefulness at 10 mg” value with wakefulness in rats came to 48.8%. Further, the negative logarithm of the Ki (pKi) on human H3 receptors is 8.62.

On to `CC(C)N1CCN(C(=O)OC2CCN(c3ccc(=O)[nH]n3)CC2)CC1` [Example 1.3, 1-(6-oxo-1,6-dihydropyridazin-3-yl)piperidin-4-yl 4-isopropylpiperazine-1-carboxylate], for which, in the assay with wakefulness in rats, the “% increase in wakefulness at 10 mg” value was determined as 19.1%. Besides, the pKi on human H3 receptors was 8.92.
